From ChEMBL document CHEMBL4425112, “1,2-Benzisothiazole Derivatives Bearing 4-, 5-, or 6-Alkyl/arylcarboxamide Moieties Inhibit Carbonic Anhydrase Isoform IX (CAIX) and Cell Proliferation under Hypoxic Conditions” (J Med Chem, 2016)

What was measured:
[1] = molecular target: Carbonic anhydrase 2 (Homo sapiens, UniProt P00918)
Description: Inhibition of human carbonic anhydrase 2 preincubated for 15 mins by stopped flow CO2 hydration assay

[2] = molecular target: Carbonic anhydrase 9 (Homo sapiens, UniProt Q16790); assay: Inhibition of human carbonic anhydrase 9 catalytic site preincubated for 15 mins by stopped flow CO2 hydration assay
[3] = molecular target: Carbonic anhydrase 1 (Homo sapiens, UniProt P00915)
Description: Inhibition of human carbonic anhydrase 1 preincubated for 15 mins by stopped flow CO2 hydration assay

[4] = Toxicity in nude mouse xenografted with human HT-29 cells assessed as weight loss at 25 to 50 mg/kg, ip administered qd measured after 16 days; assay type: organism-based; settings: in vivo, 384 h
[5] = Toxicity in nude mouse xenografted with human HT-29 cells assessed as clinical toxicity at 25 to 50 mg/kg, ip administered qd measured after 16 days; assay type: organism-based; settings: in vivo, 384 h
[6] = tested on: HT-29; assay: Antiproliferative activity against human HT-29 cells assessed as reduction in cell viability after 72 hrs by cell counter method; assay type: cell-based; settings: HT-29, 72 h
[7] = molecular target: Carbonic anhydrase 7 (Homo sapiens, UniProt P43166); assay: Inhibition of human carbonic anhydrase 7 preincubated for 15 mins by stopped flow CO2 hydration assay
[8] = tested on: HT-29; assay: Synergistic cytotoxicity in human HT-29 cells assessed as dose reduction index ratio in presence of CoCl2-induced hypoxic conditions measured at 80 % cell growth inhibition after 72 hrs in presence of compound-5c by cell counter method; assay type: functional
[9] = tested on: HT-29; assay: Synergistic cytotoxicity in human HT-29 cells assessed as dose reduction index ratio in presence of CoCl2-induced hypoxic conditions measured at 90 % cell growth inhibition after 72 hrs in presence of compound-5c by cell counter method; assay type: functional
[10] = tested on: HT-29; assay: Synergistic cytotoxicity in human HT-29 cells assessed as dose reduction index ratio in presence of CoCl2-induced hypoxic conditions measured at 70 % cell growth inhibition after 72 hrs in presence of compound-5c by cell counter method; assay type: functional

Carbonic anhydrase 1, sequence (P00915 whole entry): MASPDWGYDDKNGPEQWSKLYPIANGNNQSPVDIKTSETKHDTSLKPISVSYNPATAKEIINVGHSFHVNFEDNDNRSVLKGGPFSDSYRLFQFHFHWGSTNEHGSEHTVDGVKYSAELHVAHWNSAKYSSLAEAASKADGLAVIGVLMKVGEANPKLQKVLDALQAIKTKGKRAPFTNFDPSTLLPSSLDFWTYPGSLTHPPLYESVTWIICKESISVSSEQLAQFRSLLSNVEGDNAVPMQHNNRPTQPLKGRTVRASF
Carbonic anhydrase 7, sequence (P43166 whole entry): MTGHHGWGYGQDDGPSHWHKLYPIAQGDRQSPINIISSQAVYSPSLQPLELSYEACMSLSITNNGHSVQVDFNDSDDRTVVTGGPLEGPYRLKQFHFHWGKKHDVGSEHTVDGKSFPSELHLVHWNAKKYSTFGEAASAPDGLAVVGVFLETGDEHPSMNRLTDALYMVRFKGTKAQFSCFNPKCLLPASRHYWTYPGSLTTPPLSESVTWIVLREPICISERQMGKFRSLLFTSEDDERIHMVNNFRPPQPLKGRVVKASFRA

| Structure (SMILES) | Ki [1] | Ki [2] | Ki [3] | further results |
| --- | --- | --- | --- | --- |
| O=C(Nc1cccc2c1C(=O)NS2(=O)=O)c1ccc(-c2ccccc2)cc1 | 910 nM | 1190 nM | > 50000 nM | – |
| COc1ccc(C(=O)Nc2ccc3c(c2)C(=O)NS3(=O)=O)cc1 | 790 nM | 74 nM | – | – |
| O=C(Nc1cccc2c1C(=O)NS2(=O)=O)c1ccccc1 | 184 nM | 223 nM | > 50000 nM | – |
| COc1ccc(C(=O)Nc2ccc3c(c2)S(=O)(=O)NC3=O)cc1 | 6940 nM | 205 nM | > 50000 nM | – |
| O=C(Nc1ccc2c(c1)C(=O)NS2(=O)=O)c1cccc(Br)c1 | 3930 nM | 31.5 nM | – | – |
| O=C(Nc1ccc2c(c1)S(=O)(=O)NC2=O)c1ccc(F)cc1 | 908 nM | 543 nM | > 50000 nM | – |
| O=C(Nc1ccc2c(c1)C(=O)NS2(=O)=O)c1ccc(-c2ccccc2)cc1 | 82.9 nM | 231 nM | > 50000 nM | – |
| O=C(Nc1ccc2c(c1)S(=O)(=O)NC2=O)c1cccc(Cl)c1 | 6020 nM | 233 nM | > 50000 nM | – |
| Cc1ccc(C(=O)Nc2ccc3c(c2)S(=O)(=O)NC3=O)cc1 | 411 nM | 539 nM | > 50000 nM | – |
| O=C(Nc1ccc2c(c1)C(=O)NS2(=O)=O)c1cccc(Cl)c1 | 589 nM | 67.9 nM | – | Activity [4]: Non-Toxic; Activity [5]: Non-Toxic; IC50 [6]: > 100000 nM |
| O=C(Nc1ccc2c(c1)C(=O)NS2(=O)=O)c1ccc(F)cc1 | 6880 nM | 27.2 nM | – | – |
| O=C(Nc1cccc2c1C(=O)NS2(=O)=O)c1cccc(Br)c1 | 593 nM | 31.2 nM | – | Ki [7]: > 50000 nM; IC50 [6]: > 100000 nM |
| O=C(Nc1ccc2c(c1)S(=O)(=O)NC2=O)c1ccccc1 | 7270 nM | 220 nM | > 50000 nM | – |
| O=C(Nc1ccc2c(c1)S(=O)(=O)NC2=O)c1ccc(Cl)cc1 | 4670 nM | 1920 nM | > 50000 nM | – |
| O=C(Nc1ccc2c(c1)C(=O)NS2(=O)=O)c1ccc(Cl)cc1 | 2300 nM | 86.2 nM | > 50000 nM | – |
| O=C(Nc1ccc2c(c1)S(=O)(=O)NC2=O)c1cccc(Br)c1 | 837 nM | 665 nM | > 50000 nM | – |
| CC(=O)Nc1ccc2c(c1)C(=O)NS2(=O)=O | 1480 nM | 30.4 nM | – | Ki [7]: > 50000 nM; IC50 [6]: > 100000 nM |
| CCc1c2c(nc3ccc(O)cc13)-c1cc3c(c(=O)n1C2)COC(=O)[C@]3(O)CC [7-ETHYL-10-HYDROXYCAMPTOTHECIN] | – | – | – | Ratio [8]: 2.039; Ratio [9]: 7.395; Ratio [10]: 0.866 |
| O=c1[nH]cc(F)c(=O)[nH]1 [FLUOROURACIL] | – | – | – | Ratio [8]: 15.884; Ratio [9]: 89.952; Ratio [10]: 5.017 |
